Measurements from patent US20180346505A1, “MONONUCLEOTIDES HAVING A BIOREVERSIBLE DISULFIDE GROUP” (priority 2014, published 2018).
Several values for one entry are separate records, joined by “and”; a condition that tells them apart may be missing. Identical values can stand only once.

Key:
[1] = tested on: GT1b/5a NS5B chimeric replicon; assay: HCV replicon assay, GT1b/5a NS5B chimeric replicon, transient transfection; type: cell-based, hepatitis C virus; conditions: Hepatitis C virus, Huh-7, 72 h, read-out: GT5a EC50, GT1b/5a NS5B chimeric replicon, Huh-7 cells, luciferase, 72 hours
Procedure: (§1) The antiviral activity of the test compounds was assessed in the wild type GT1b (Con1), GT1a (H77), and GT1b/2a, GT1b/3a, GT1b/4a and GT1b/5a NS5B chimeric replicons, as well as the NS5B mutant replicons listed in Table 2a and 2b.
(§2) To generate HCV NS5B chimeric replicons, the GT1 b replicon was used as a backbone with the NS5B gene replaced with the NS5B gene of GT2a, GT3a, GT4a and GT5a derived from clinical isolates. These NS5B genes were cloned into the GT1b backbone and were confirmed by sequencing.
(§3) All the replicon assays were luciferase based in Huh-7 cells, either in stable format (GT1b and GT1a) or by transient transfection by electroporation (chimeric and mutant replicons). For a standard HCV replicon assay, stable or transiently transfected Huh-7 cells were seeded in 96-well plates (5,000 cells/well), cultured in DMEM containing 10% FBS, and incubated at 37° C., 5% CO2. On the following day, test compounds were diluted with assay media and added to the appropriate wells (final DMSO concentration in the cell culture medium was 0.5%). Assay reference positive control was included in each run to ensure assay performance. Cells were incubated at 37° C., 5% CO2 for 72 hours, at which time the cells were still sub-confluent. The antiviral activity was determined by measuring replicon reporter firefly luciferase activity using Bright Glo kit in accordance with the protocol provided by the supplier (Promega). The toxicity of the test compounds was assessed by CytoTox-1 cell proliferation assay (Promega). The half maximal effective concentration (EC50) and the half maximal toxic concentration (TC50) values were calculated using the GraphPad Prism software.

[2] = Nucleoside phosphoester stability in simulated gastric fluid; type: in vitro ADME; conditions: simulated gastric fluid pH 1.2, 2 μM, 37° C.
Procedure: Test compounds at 2 μM were incubated at 37° C. with simulated gastric fluid (SGF, 0.2% (w/v) sodium chloride in 0.7% (v/v) hydrochloric acid, deionized water, 0.3% pepsin (w/v), pH 1.2). Duplicate samples were used. Samples were removed at 0, 15, 30, 60, 120, 360 and 1440 min, immediately mixed with cold acetonitrile containing internal standard (IS), and stored at −80° C. before analysis. Omeprazole was used as a positive control. Samples were analyzed by LC/MS/MS method, and disappearance of test compound was assessed by comparison of peak area ratios of analyte/IS and reported as % test compound remaining at each time point.

[3] = tested on: GT3a L159F NS5B mutant replicon; assay: HCV NS5B mutant replicon assay, GT3a L159F; type: cell-based; conditions: Hepatitis C virus, Huh-7, 72 h, read-out: GT3a L159F EC50
Procedure: as §1, §2
(§4) The HCV replicon mutants were generated by site-directed mutagenesis (SDM). The SDM was performed by PCR and the PCR fragments were inserted into the backbone replicon construct. The inserted PCR fragments and the mutants were confirmed by sequencing.
as §3

[4] = tested on: GT1b (Con1) HCV replicon; assay: HCV replicon assay, wild type GT1b (Con1), luciferase based, stable format; type: cell-based, hepatitis C virus; conditions: Huh-7 cells, 72 hours
Procedure: as §1, §3

[5] = tested on: Huh-7 cells; assay: Toxicity by CytoTox-1 cell proliferation assay (TC50) and selectivity index; type: cell-based; conditions: TC50 by CytoTox-1 cell proliferation assay over replicon EC50, Huh-7 cells
Procedure: as §3

[6] = tested on: GT1b S96T NS5B mutant replicon; assay: HCV NS5B mutant replicon assay, GT1b S96T; type: cell-based; conditions: Hepatitis C virus, Huh-7, 72 h, read-out: GT1b S96T EC50
Procedure: as §1, §4, §3

[7] = tested on: GT1a L159F NS5B mutant replicon; assay: HCV NS5B mutant replicon assay, GT1a L159F; type: cell-based; conditions: Hepatitis C virus, Huh-7, 72 h, read-out: GT1a L159F EC50
Procedure: as §1, §4, §3

[8] = tested on: GT1b L159F NS5B mutant replicon; assay: HCV NS5B mutant replicon assay, GT1b L159F; type: cell-based; conditions: Hepatitis C virus, Huh-7, 72 h, read-out: GT1b L159F EC50
Procedure: as §1, §4, §3

[9] = tested on: GT1b/2a NS5B chimeric replicon; assay: HCV replicon assay, GT1b/2a NS5B chimeric replicon, transient transfection; type: cell-based, hepatitis C virus; conditions: Hepatitis C virus, Huh-7, 72 h, read-out: GT2a EC50, GT1b/2a NS5B chimeric replicon, Huh-7 cells, luciferase, 72 hours
Procedure: as §1, §2, §3

[10] = tested on: GT1b/4a NS5B chimeric replicon; assay: HCV replicon assay, GT1b/4a NS5B chimeric replicon, transient transfection; type: cell-based, hepatitis C virus; conditions: Hepatitis C virus, Huh-7, 72 h, read-out: GT4a EC50, GT1b/4a NS5B chimeric replicon, Huh-7 cells, luciferase, 72 hours
Procedure: as §1, §2, §3

[11] = tested on: GT1a S282T NS5B mutant replicon; assay: HCV NS5B mutant replicon assay, GT1a S282T; type: cell-based; conditions: Hepatitis C virus, Huh-7, 72 h, read-out: GT1a S282T EC50
Procedure: as §1, §4, §3

[12] = tested on: GT1b C316N NS5B mutant replicon; assay: HCV NS5B mutant replicon assay, GT1b C316N; type: cell-based; conditions: Hepatitis C virus, Huh-7, 72 h, read-out: GT1b C316N EC50
Procedure: as §1, §4, §3

[13] = tested on: GT3a S282T NS5B mutant replicon; assay: HCV NS5B mutant replicon assay, GT3a S282T; type: cell-based; conditions: Hepatitis C virus, Huh-7, 72 h, read-out: GT3a S282T EC50
Procedure: as §1, §2, §4, §3

[14] = tested on: GT3a V321A NS5B mutant replicon; assay: HCV NS5B mutant replicon assay, GT3a V321A; type: cell-based; conditions: Hepatitis C virus, Huh-7, 72 h, read-out: GT3a V321A EC50
Procedure: as §1, §2, §4, §3

[15] = tested on: GT1a (H77) HCV replicon; assay: HCV replicon assay, wild type GT1a (H77), luciferase based, stable format; type: cell-based, hepatitis C virus; conditions: Hepatitis C virus, GT1A, Huh-7, 72 h, Huh-7 cells
Procedure: as §1, §3

[16] = tested on: GT1b S282T NS5B mutant replicon; assay: HCV NS5B mutant replicon assay, GT1b S282T; type: cell-based; conditions: Hepatitis C virus, Huh-7, 72 h, read-out: GT1b S282T EC50
Procedure: as §1, §4, §3

[17] = tested on: GT1b/3a NS5B chimeric replicon; assay: HCV replicon assay, GT1b/3a NS5B chimeric replicon, transient transfection; type: cell-based, hepatitis C virus; conditions: read-out: GT3a EC50; GT1b/3a NS5B chimeric replicon, Huh-7 cells, luciferase, 72 hours
Procedure: as §1, §2, §3

[18] = Nucleoside phosphoester stability in simulated intestinal fluid; type: in vitro ADME; conditions: simulated gi fluid, 2 μM, pH 6.8
Procedure: Test compounds at 2 μM were incubated at 37° C. with simulated intestinal fluid (SIF), which contains 0.68% (w/v) monobasic potassium phosphate and 1% (w/v) pancreatin in ultra-pure water (pH 6.8). Duplicate samples were used. Samples were removed at 0, 15, 30, 60, 120, 360 and 1440 min, immediately mixed with cold acetonitrile containing an internal standard (IS), and stored at −80° C. before analysis. Chlorambucil was used as a positive control. Samples were analyzed by a LC/MS/MS method, and disappearance of test compound was assessed by comparison of peak area ratios of analyte/IS and reported as % test compound remaining at each time point.

CC(C)(C)SSc1ccccc1CCOP1(=O)OC[C@H]2O[C@@H](n3ccc(N)nc3=O)[C@](C)(F)[C@@H]2O1 (single isomer, unassigned) [Compound 9A]
EC50 [1]: 2 nM | % Remaining ([2]; 0 min): 100.00% | % Remaining ([2]; 15 min): 107.89% | % Remaining ([2]; 30 min): 102.51% | % Remaining ([2]; 60 min): 97.63% | % Remaining ([2]; 120 min): 94.89% | % Remaining ([2]; 360 min): 91.06% | % Remaining ([2]; 1440 min): 76.22% | EC50 [3]: 8 nM | EC50 [4]: 7 nM and 4 to 5 nM | Selectivity Index (TC50/EC50) [5]: >500 | EC50 [6]: 7 nM | EC50 [7]: 10 nM | EC50 [8]: 9 nM | EC50 [9]: 3 nM | EC50 [10]: 3 nM | EC50 [11]: 6 to 35 nM | EC50 [12]: 4 nM | EC50 [13]: 6 to 18 nM | EC50 [14]: 12 nM | EC50 [15]: 3 to 6 nM | EC50 [16]: 23 to 25 nM | EC50 [17]: 6 nM and 4 to 6 nM | % Remaining ([18]; 0 h): 100.00% | % Remaining ([18]; 0.25 h): 99.21% | % Remaining ([18]; 0.5 h): 103.81% | % Remaining ([18]; 1 h): 103.14% | % Remaining ([18]; 2 h): 109.48% | % Remaining ([18]; 6 h): 101.64% | % Remaining ([18]; 24 h): 98.27%
